Assay results as given in ChEMBL document CHEMBL1158089, “Indoleamine 2,3-dioxygenase inhibitors from the Northeastern Pacific Marine Hydroid Garveia annulata” (J Nat Prod, 2006).

Molecular target: Indoleamine 2,3-dioxygenase 1 (Homo sapiens, UniProt P14902)
Assay: Inhibition of human indoleamine 2,3-dioxygenase expressed in Escherichia coli by spectrophotometric activity assay

Indoleamine 2,3-dioxygenase 1, sequence (P14902 whole entry): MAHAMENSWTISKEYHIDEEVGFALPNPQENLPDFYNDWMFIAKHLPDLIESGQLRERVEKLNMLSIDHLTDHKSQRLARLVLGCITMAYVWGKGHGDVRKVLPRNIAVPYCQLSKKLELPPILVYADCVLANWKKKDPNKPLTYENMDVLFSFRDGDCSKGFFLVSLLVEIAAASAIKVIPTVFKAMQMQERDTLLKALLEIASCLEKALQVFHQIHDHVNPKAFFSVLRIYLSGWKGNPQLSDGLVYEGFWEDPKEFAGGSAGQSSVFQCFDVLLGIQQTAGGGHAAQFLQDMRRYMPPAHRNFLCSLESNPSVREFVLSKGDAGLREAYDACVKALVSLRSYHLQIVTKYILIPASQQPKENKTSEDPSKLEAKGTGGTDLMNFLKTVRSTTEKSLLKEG

Ki [nM] | SMILES
1400 | CCC1=C(C)C(=O)c2cc3c(c(O)c2C1=O)C(=O)C(C)(O)C(=O)C3(C)C (stereo not drawn)
140 | CCc1c(C)cc2c(c1O)C(=O)C1=C(C2=O)C(C)(C)OC1(OC)C(=O)OC (stereo not drawn) [ANNULIN C]
1200 | COc1c(C(C)=O)c(C)cc2cc3c(c(O)c12)C(=O)C(C)(C)C(=O)C3(C)C [GARVEATIN C]
